Literature values as cited in patent US20110171717A1, “METHOD FOR ENHANCING […]” (priority 2006, published 2011).

Tested on: polymerase
Conditions: cited from earlier work; for effect on polymerase activity: known from Weyant et al., BioTechniques 1990

Molecule: Sodium deoxycholate
- effect on polymerase activity: inhibit a polymerase activity

Molecule: CCCCCCCCCCCC(=O)N(C)CC(=O)[O-].[Na+] [sodium N-lauroyl sarcosinate, N-Lauroylsarcosine-sodium salt]
- effect on polymerase activity: inhibit a polymerase activity

Molecule: CCCCCCCCCCCCOS(=O)(=O)[O-].[Na+] [SDS, Sodium dodecyl sulfate]
- effect on polymerase activity at low concentration (e.g., 0.01% of SDS): inhibit a polymerase activity even at low concentrations
- effect on polymerase activity: inhibit a polymerase activity
